Each block holds one molecule with its values, some of them ahead of it.
Test system: glycogen synthase
Test: Glycogen Synthase (GS) Assay
Assay type: biochemical
Conditions: for EC50: compound concentration needed to give 50% maximum activation; for GS SC200: compound concentration needed to stimulate 200% of the enzyme activity
Procedure: Twelve μL per well of substrate solution containing glycogen (4.32 mg/'ml), 2.67 mM UDP-glucose, 21.6 mM phospho(enol)pyruvate and 2.7 mM NADH in 30 mM glycylglycine, pH 7.3 buffer was added into a polystyrene 384-well assay plate (BD Biosciences).
Compound solutions (8 μL/well) at various concentrations (0-300 μM) were added to the assay plate (columns 5-24). Compound solution contains 30 mM glycylglycine, pH 7.3, 40 mM KCl, 20 mM MgCl2, 9.2% DMSO, with (columns 15-24) or without (columns 5-14) 20 mM glucose 6-phosphate.
Enzyme solution (12 μL/well) containing glycogen synthase (16.88 μg/ml), pyruvate kinase (0.27 mg/ml), lactate dehydrogenase (0.27 mg/ml) in 50 mM Tris-HCl, pH 8.0, 27 mM DTT and bovine serum albumin (BSA, 0.2 mg/ml) was added to the assay plate (columns 3-24). As a blank control, enzyme solution without glycogen synthase was added into the top half wells of columns 1-2. To the bottom half wells of columns 1-2 were added a known activator, glucose 6-phosphate (at final concentration 5 mM) in addition to the enzyme solution. The reaction mixture was incubated at room temperature. The assay plate was then read for absorbance at 340 nm on an Envision reader every 3 minutes up to a total of 15 minutes.
The enzyme activity (with or without compound) was calculated by the reaction rate and represented by the optical density change (SOD) per minute. Percent stimulation of glycogen synthase activity by a compound at various concentrations was calculated by the following formula: % stimulation=100*Rs/Rt, Where Rs is the reaction rate of the enzyme in the presence of compound and Rt is the reaction rate of the enzyme in the absence of compound.
SC200 is defined as the compound concentration that is needed to stimulate 200% of the enzyme activity. EC50 is defined as the compound concentration that is needed to give 50% maximum activation.

SMILES: COc1cc(F)c(F)cc1-c1ccc(OCc2cccc(N3CCC[C@H]3CC(=O)O)c2)cc1 [Example 8, {(S)-1-[3-(4′,5′-Difluoro-2′-methoxy-biphenyl-4-yloxymethyl)-phenyl]-pyrrolidin-2-yl}-acetic acid]
EC50: 6.37 µM
GS SC200: 2.43 µM

SMILES: O=C(Nc1cccc(COc2ccc(-c3ccc(F)cc3F)cc2)c1)C1CCC[C@H]1C(=O)O (stereo in doubt) [Example 3, (1R,2R)-2-[3-(2′,4′-Difluoro-biphenyl-4-yloxymethyl)-phenylcarbamoyl]-cyclopentanecarboxylic acid]
EC50: 4.4 µM
GS SC200: 1.3 µM

SMILES: O=C(O)CCC(=O)Nc1cccc(COc2ccc(-c3ccc(F)cc3F)cc2)c1 [Example 1, N-[3-(2′,4′-Difluoro-biphenyl-4-yloxymethyl)-phenyl]-succinamic acid]
EC50: 6.96 µM
GS SC200: 2.69 µM

SMILES: O=C(Nc1cccc(COc2ccc(-c3ccc(F)cc3F)cc2)c1)[C@H]1CCC[C@H]1C(=O)O (racemic) [Example 2, (trans)-2-[3-(2′,4′-Difluoro-biphenyl-4-yloxymethyl)-phenylcarbamoyl]-cyclopentanecarboxylic acid]
EC50: 5.93 µM
GS SC200: 3.24 µM

SMILES: CS(=O)(=O)Nc1cccc(COc2ccc(-c3cc(F)c(F)cc3F)cc2)c1 [Example 10, N-[3-(2′,4′,5′-Trifluoro-biphenyl-4-yloxymethyl)-phenyl]-methanesulfonamide]
EC50: 5.71 µM
GS SC200: 2.41 µM

SMILES: O=C(O)C1CCC[C@@H]1C(=O)Nc1cccc(COc2ccc(-c3ccc(F)cc3F)cc2)c1 (stereo in doubt) [Example 4, (1S,2S)-2-[3-(2′,4′-Difluoro-biphenyl-4-yloxymethyl)-phenylcarbamoyl]-cyclopentanecarboxylic acid]
EC50: 6.15 µM
GS SC200: 2.09 µM

Stronger by EC50, values ahead:

EC50: 3.71 µM
SMILES: COc1cc(F)c(F)cc1-c1ccc(OCc2cccc(N3CCC[C@H]3C(=O)O)c2)cc1 [Example 7, (S)-1-[3-(4′,5′-Difluoro-2′-methoxy-biphenyl-4-yloxymethyl)-phenyl]-pyrrolidine-2-carboxylic acid]
GS SC200: 0.7 µM

EC50: 3.14 µM
SMILES: O=C(O)[C@H]1CCC[C@H]1C(=O)Nc1cccc(COc2ccc(-c3ccc(F)cc3F)cc2)c1 (stereo in doubt) [Example 6, (1S,2R)-2-[3-(2′,4′-Difluoro-biphenyl-4-yloxymethyl)-phenylcarbamoyl]-cyclopentanecarboxylic acid]
GS SC200: 0.77 µM

EC50: 2.84 µM
SMILES: O=C(Nc1cccc(COc2ccc(-c3ccc(F)cc3F)cc2)c1)[C@H]1CCC[C@H]1C(=O)O [Example 5, (1R,2S)-2-[3-(2′,4′-Difluoro-biphenyl-4-yloxymethyl)-phenylcarbamoyl]-cyclopentanecarboxylic acid]
GS SC200: 0.65 µM

EC50: 2.75 µM
SMILES: COc1cc(F)c(F)cc1-c1ccc(OCc2cccc(NS(C)(=O)=O)c2)cc1 [Example 11, N-[3-(4′,5′-Difluoro-2′-methoxy-biphenyl-4-yloxymethyl)-phenyl]-methanesulfonamide]
GS SC200: 1.1 µM

EC50: 1.48 µM
SMILES: O=S(=O)(Nc1cccc(COc2ccc(-c3cc(F)c(F)cc3F)cc2)c1)C(F)(F)F [Example 12, C,C,C-Trifluoro-N-[3-(2′,4′,5′-trifluoro-biphenyl-4-yloxymethyl)-phenyl]methanesulfonamide]
GS SC200: 0.95 µM

EC50: 1.02 µM
SMILES: COc1cc(F)c(F)cc1-c1ccc(OCc2cccc(N(CC(=O)O)C(C)=O)c2)cc1 [Example 9, {Acetyl-[3-(4′,5′-difluoro-2′-methoxy-biphenyl-4-yloxymethyl)-phenyl]-amino}-acetic acid]
GS SC200: 0.33 µM

EC50: 0.44 µM
SMILES: COc1cc(F)c(F)cc1-c1ccc(OCc2cccc(NS(=O)(=O)C(F)(F)F)c2)cc1 [Example 13, N-[3-(4′,5′-Difluoro-2′-methoxy-biphenyl-4-yloxymethyl)-phenyl]-C,C,C-trifluoromethanesulfonamide]
GS SC200: 0.18 µM

— patent US7939569B1, “Aniline analogs as glycogen synthase activators” (Hoffmann-La Roche Inc., priority 2009, dated 2011)
